From patent US20250230171A1 (MOMA Therapeutics, Inc., priority 2023, published 2025)

Target: biotinylated Avi-POLθ[2-894] (Homo sapiens (Human), UniProt O75417)
Assay: POLθ ATPase assay (ADP-Glo)
Settings: POLθ ATPase, ADP-Glo; n=2; read-out: Biochemical ATPase ADPGlo IC50
Protocol: In some embodiments, the ATPase assay a compound of the present disclosure is combined with biotinylated Avi-POLθ[2-894], a 50 nucleotide poly-thymine repeat single-stranded DNA, and ATP in buffer. In some embodiments, the mixture is incubated and ADP-Glo Reagent added, followed by a subsequent incubation. In some embodiments, a Kinase Detection Reagent may be added, followed by a third incubation. In some embodiments, the activity is measured via luminescence signal (e.g., measured with the EnVision multimode plate reader). POLθ-mediated ATP hydrolysis was measured using the ADP-Glo Kinase Assay (Promega Corporation, Madison, WI). Reactions were performed in white 384-well small-volume microplates (Greiner Bio-One, Frickenhausen, Germany) using a total volume of 15 μL. The ATPase reaction consisted of 1 nM biotinylated Avi-POLθ[2-894], 5 nM of a 50 nucleotide poly-thymine repeat single-stranded DNA (PolyT(50) ssDNA), and 100 μM ATP in 5 μL of assay buffer (50 mM Tris, pH 7.5, 80 mM KCl, 10 MgCl2, 1 mM DTT, 5% glycerol, 0.01% BSA, 0.01% Tween-20). Inhibition of POLΘATPase activity was determined by preparing 11-point serial dilutions of the test compounds in 100% DMSO, then transferring 30 nL of the compounds into the ATPase reaction using an Echo acoustic liquid handler (Beckman Coulter, Brea, CA). DMSO-treated wells containing either all of the reaction components (1 nM biotinylated Avi-POLθ[2-894], 5 nM PolyT(50) ssDNA, 100 μM ATP) or with assay buffer substituted for the biotinylated Avi-POLθ[2-894](0 nM biotinylated Avi-POLθ[2-894], 5 nM PolyT(50) ssDNA, 100 μM ATP) were used to define the maximum and minimum response in the assay. Following a one-hour incubation at ambient temperature, 5 μL of ADP-Glo Reagent was added to the ATPase reaction, and this mixture was allowed to incubate at ambient temperature for an additional hour. Lastly, 5 μL of Kinase Detection Reagent was added, followed by a third one-hour incubation at ambient temperature. […] Luminescence signal was measured using the EnVision multimode plate reader (Perkin Elmer. Waltham. MA). […] Non-linear regression analysis using the four-parameter logistic equation was conducted on the percent activity values of the compound dose-responses, yielding the AC50 value for each compound. Genedata Screener (Genedata. Basel, Switzerland) was used for the data analysis.

Chain of biotinylated Avi-POLθ[2-894] (O75417 2-894): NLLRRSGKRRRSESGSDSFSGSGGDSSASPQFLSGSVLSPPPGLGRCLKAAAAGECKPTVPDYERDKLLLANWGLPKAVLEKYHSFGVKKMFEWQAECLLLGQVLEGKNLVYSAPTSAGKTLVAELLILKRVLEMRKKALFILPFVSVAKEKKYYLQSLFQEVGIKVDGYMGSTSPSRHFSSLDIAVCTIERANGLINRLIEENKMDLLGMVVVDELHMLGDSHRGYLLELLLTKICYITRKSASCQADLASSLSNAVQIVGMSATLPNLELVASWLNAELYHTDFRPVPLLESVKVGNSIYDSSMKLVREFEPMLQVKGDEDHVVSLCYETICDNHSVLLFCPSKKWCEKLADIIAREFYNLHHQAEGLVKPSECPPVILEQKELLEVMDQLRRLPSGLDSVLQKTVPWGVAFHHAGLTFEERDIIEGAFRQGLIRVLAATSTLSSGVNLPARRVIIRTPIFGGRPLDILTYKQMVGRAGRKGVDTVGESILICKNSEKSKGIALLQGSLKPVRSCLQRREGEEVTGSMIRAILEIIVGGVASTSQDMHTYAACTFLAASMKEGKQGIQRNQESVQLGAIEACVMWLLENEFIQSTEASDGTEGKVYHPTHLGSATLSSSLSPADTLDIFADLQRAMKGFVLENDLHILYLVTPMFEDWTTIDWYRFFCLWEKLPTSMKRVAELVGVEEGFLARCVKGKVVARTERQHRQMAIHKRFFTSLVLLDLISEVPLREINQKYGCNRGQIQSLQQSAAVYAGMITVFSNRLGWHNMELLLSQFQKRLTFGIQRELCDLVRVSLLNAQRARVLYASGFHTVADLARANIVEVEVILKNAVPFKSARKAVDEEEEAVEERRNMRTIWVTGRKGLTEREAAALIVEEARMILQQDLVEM

| IC50 | SMILES |
| --- | --- |
| ≥ 900 nM | COc1nc(C(=O)N2Cc3nc(NC(=O)c4cnc(C)cc4-c4cc(Cl)cnc4O)sc3C2)c(C)cc1C(F)(F)F [Example 1043, 5-chloro-2-hydroxy-N-(5-(6-methoxy-3-methyl-5-(trifluoromethyl)picolinoyl)-5,6-dihydro-4H-pyrrolo[3,4-d]thiazol-2-yl)-6′-methyl-[3,4′-bipyridine]-3′-carboxamide] |
| 1 to 15 nM | COc1ccc(C#N)cc1-c1cc(C)ncc1C(=O)Nc1nc2c(s1)CN(C(=O)c1ccc(F)c(C(F)F)c1)C2 |

Same assay, conditions: n=2; read-out: Biochemical ATPase ADPGlo IC50

| SMILES | IC50 |
| --- | --- |
| COc1ccccc1-c1cc(C)ncc1C(=O)Nc1nc2c(s1)CN(C(=O)CN1CCOC1=O)C2 | ≥ 900 nM |
| COc1ccccc1-c1cc(C)ncc1C(=O)Nc1nc2c(s1)CN(C(=O)C1(C)COC1)C2 | ≥ 900 nM |
| COc1cnccc1-c1cc(C)ncc1C(=O)Nc1nc2c(s1)CN(C(=O)c1ccccn1)C2 [Example 98, 3′-methoxy-6-methyl-N-(5-picolinoyl-5,6-dihydro-4H-pyrrolo[3,4-d]thiazol-2-yl)-[4,4′-bipyridine]-3-carboxamide] | 150 to 900 nM |
| COc1ccccc1-c1cc(C)ncc1C(=O)Nc1nc2c(s1)CN(C(=O)c1ncnn1C)C2 | 150 to 900 nM |
| COc1ccccc1-c1cc(C)ncc1C(=O)Nc1nc2c(s1)CN(C(=O)c1cnnn1C)C2 | 150 to 900 nM |
| COc1ccccc1-c1cc(C)ncc1C(=O)Nc1nc2c(s1)CC(Nc1ccccc1)CC2 (stereo not drawn) | ≥ 900 nM |
| COc1ccccc1-c1cc(C)ncc1C(=O)Nc1nc2c(s1)CN(S(=O)(=O)N(C)C)C2 | 150 to 900 nM |
| COc1ccccc1-c1cc(C)ncc1C(=O)Nc1nc2c(s1)CN(C(=O)C1CCCO1)C2 (racemic) | 150 to 900 nM |
| COc1ccccc1-c1cc(C)ncc1C(=O)Nc1nc2c(s1)CN(C(=O)C1CCCS1(=O)=O)C2 (stereo not drawn) | ≥ 900 nM |
| COc1ccccc1-c1cc(C)ncc1C(=O)Nc1nc2c(s1)CN(c1nccs1)C2 | ≥ 900 nM |

Continued, values first:

| IC50 | SMILES |
| --- | --- |
| 1 to 15 nM | COc1cnc(Cl)cc1-c1cc(C)ncc1C(=O)Nc1nc2c(s1)CN(C(=O)[C@H]1C[C@H](O)C1)C2 [Example 187] |
| 50 to 150 nM | COc1ccccc1-c1cc(C)ncc1C(=O)Nc1nc2c(s1)CN(C(=O)c1cc3ccccn3n1)C2 |
| 1 to 15 nM | CCn1ccc(C(=O)N2Cc3nc(NC(=O)c4cnc(C)cc4-c4cc(Cl)ncc4OC)sc3C2)n1 [Example 69, 2′-chloro-N-(5-(1-ethyl-1H-pyrazole-3-carbonyl)-5,6-dihydro-4H-pyrrolo[3,4-d]thiazol-2-yl)-5′-methoxy-6-methyl-[4,4′-bipyridine]-3-carboxamide] |
| 15 to 50 nM | COc1ccc(C#N)cc1-c1cc(C)ncc1C(=O)Nc1nc2c(s1)CN(C(=O)C1CC1OC)CC2 (stereo not drawn) [Example 207] |
| 1 to 15 nM | COc1cnc(Cl)cc1-c1cc(C)ncc1C(=O)Nc1nc2c(s1)CN(C(=O)c1c(C)nn(C)c1C)C2 [Example 76, 2′-chloro-5′-methoxy-6-methyl-N-(5-(1,3,5-trimethyl-1H-pyrazole-4-carbonyl)-5,6-dihydro-4H-pyrrolo[3,4-d]thiazol-2-yl)-[4,4′-bipyridine]-3-carboxamide] |
| 1 to 15 nM | COc1cnc(Cl)cc1-c1cc(C)ncc1C(=O)Nc1nc2c(s1)CN(C(=O)[C@@H]1CCC[C@@H](OC)C1)C2 |
| 1 to 15 nM | COc1ccc(C#N)cc1-c1cc(C)ncc1C(=O)Nc1nc2c(s1)CN(C(=O)[C@@H]1CC[C@H]1C)C2 |
| 50 to 150 nM | CCNS(=O)(=O)N1CCc2nc(NC(=O)c3cnc(C)cc3-c3cc(C#N)ccc3OC)sc2C1 |
| 15 to 50 nM | COc1cnc(C)cc1-c1cc(C)ncc1C(=O)Nc1nc2c(s1)CN(C(=O)c1ccccn1)C2 [Example 108, 5′-methoxy-2′,6-dimethyl-N-(5-picolinoyl-5,6-dihydro-4H-pyrrolo[3,4-d]thiazol-2-yl)-[4,4′-bipyridine]-3-carboxamide] |
| 1 to 15 nM | COc1ccc(C#N)cc1-c1cc(C)ncc1C(=O)Nc1nc2c(s1)CN(C(=O)[C@@H]1CC[C@H]1OC)C2 [Example 235] |
| 1 to 15 nM | COc1cnc(Cl)cc1-c1cc(C)ncc1C(=O)Nc1nc2c(s1)CN(C(=O)C1CCC(O)C1)C2 (stereo not drawn) [Example 180] |
| 15 to 50 nM | COc1ccc(C#N)cc1-c1cc(C)ncc1C(=O)Nc1nc2c(s1)CN(S(=O)(=O)C1CCCOC1)C2 (racemic) [Example 233] |
